In brackets after ≈: the same amount, converted by molar mass.
Assays:
[1] = tested on: KB; assay: Cytotoxicity against human KB cells assessed as inhibition of cell growth by measuring effective dose; assay type: functional; conditions: read-out: ED50 (the source's name)
[2] = tested on: P388; assay: Cytotoxicity against mouse P388 cells; assay type: functional, cell-based; conditions: Mus musculus, P388; read-out: IC50
[3] = tested on: K562; assay: Cytotoxicity against human K562 cells by colorimetric assay; assay type: functional, cell-based
[4] = tested on: HeLa S3; assay: Cytotoxicity against human HeLa S3 cells; assay type: functional, cell-based; conditions: Homo sapiens, HeLa S3; read-out: IC50
[5] = tested on: MIA PaCa-2; assay: Cytotoxicity against human MIA PaCa-2 cells assessed as reduction in cell viability incubated for 48 hrs by MTS assay; assay type: functional, cell-based; conditions: MIA PaCa-2, time 48 hrs
[6] = tested on: JIMT-1; assay: Cytotoxicity against human JIMT-1 cells assessed as reduction in cell viability incubated for 48 hrs by MTS assay; assay type: functional, cell-based; conditions: JIMT-1, time 48 hrs
[7] = tested on: BT-474; assay: Cytotoxicity against human BT-474 cells assessed as reduction in cell viability incubated for 48 hrs by MTS assay; assay type: functional, cell-based; conditions: BT-474, time 48 hrs
[8] = tested on: DU-145; assay: Cytotoxicity against human DU-145 cells assessed as reduction in cell viability incubated for 48 hrs by MTS assay; assay type: functional, cell-based; conditions: DU-145, time 48 hrs
[9] = tested on: PC-3; assay: Cytotoxicity against human PC-3 cells assessed as reduction in cell viability incubated for 48 hrs by MTS assay; assay type: functional, cell-based; conditions: PC-3, time 48 hrs

## C/C=C(\C)C(=O)O[C@H]1[C@H](O)[C@@H](O)[C@H](O[C@@H]2[C@H]3OC(=O)CCCCCCCCC[C@H](CCCCC)O[C@@H]4O[C@H](C)[C@@H](O)[C@H](O)[C@H]4O[C@@H]4O[C@H](COC(=O)C(C)C)[C@@H](O)[C@H](O)[C@H]4O[C@H](O[C@H]2C)[C@@H]3OC(=O)[C@@H](C)[C@H](C)O)O[C@@H]1C [ORIZABIN XI]
[1]
  EC50: 1 µg/mL (≈ 0.903 µM)

## C/C=C(\C)C(=O)O[C@H]1[C@H](O)[C@@H](O)[C@H](O[C@@H]2[C@H]3OC(=O)CCCCCCCCC[C@H](CCCCC)O[C@@H]4O[C@H](C)[C@@H](O)[C@H](O)[C@H]4O[C@@H]4O[C@H](COC(=O)[C@@H](C)[C@H](C)O)[C@@H](O)[C@H](O)[C@H]4O[C@H](O[C@H]2C)[C@@H]3OC(=O)C(C)C)O[C@@H]1C [ORIZABIN XIII]
[1]
  EC50: 1 µg/mL (≈ 0.903 µM)

## C/C=C(\C)C(=O)O[C@H]1[C@H](O)[C@@H](O)[C@H](O[C@@H]2[C@H]3OC(=O)CCCCCCCCC[C@H](CCCCC)O[C@@H]4O[C@H](C)[C@@H](O)[C@H](O)[C@H]4O[C@@H]4O[C@H](COC(=O)[C@@H](C)CC)[C@@H](O)[C@H](O)[C@H]4O[C@H](O[C@H]2C)[C@@H]3OC(=O)[C@H](C)[C@@H](C)O)O[C@@H]1C [ORIZABIN XIV]
[1]
  EC50: 1 µg/mL (≈ 0.892 µM)

## CO[C@@H]1[C@H](O[C@@H]2CO[C@@H](O[C@@H]3[C@@H](O)[C@H](O)CO[C@H]3N3C(=O)/C(=C(O)/C=C/C=C/C=C/C=C/C=C(Cl)/C=C/C=C/[C@H]4O[C@H](C)C[C@@H]4Cl)C(=O)[C@@H]3CC(N)=O)[C@@H](O)[C@@H]2O)O[C@H](C)[C@H]1O
[2]
  IC50: 0.2 µg/mL (≈ 0.219 µM)

## C[C@@H]1C[C@H](Cl)[C@@H](/C(Cl)=C/C=C/C(Cl)=C/C=C/C=C/C=C/C=C/C(O)=C2\C(=O)[C@H](CC(N)=O)N([C@@H]3OC[C@@H](O)[C@H](O)[C@H]3O[C@@H]3OC[C@@H](O[C@@H]4O[C@H](C)[C@@H](O)[C@@H]4O)[C@@H](O)[C@@H]3O)C2=O)O1
[2]
  IC50: 0.2 µg/mL (≈ 0.214 µM)

## C[C@@H]1C[C@H](Cl)[C@H](/C=C/C=C/C=C/C(Cl)=C/C=C/C=C/C=C/C=C/C(O)=C2\C(=O)[C@H](CC(N)=O)N([C@@H]3OC[C@@H](O)[C@H](O)[C@H]3O[C@@H]3OC[C@@H](O[C@@H]4O[C@H](C)[C@@H](O)[C@@H]4O)[C@@H](O)[C@@H]3O)C2=O)O1
[2]
  IC50: > 5 µg/mL

## CCCCC[C@H]1CCCCCCCCCC(=O)O[C@@H]2[C@@H](O[C@@H]3O[C@H](C)[C@@H](OC(=O)[C@@H](C)CC)[C@H](O)[C@H]3O)[C@H](C)O[C@@H](O[C@H]3[C@H](O[C@H]4[C@H](O1)O[C@H](C)[C@@H](O)[C@@H]4O)O[C@H](COC(=O)[C@H](C)[C@@H](C)O)[C@@H](O)[C@@H]3O)[C@@H]2OC(=O)[C@@H](C)CC [ORIZABIN XX]
[1]
  EC50: 1 µg/mL (≈ 0.89 µM)

## CCCCCCCCCCCCCCCCCCOCC(CO[C@@H]1O[C@H](CO)[C@@H](O[C@@H]2O[C@H](CO)[C@H](O)[C@H](O)[C@H]2O)[C@H](O)[C@H]1O)OCC (some centres undefined)
[3]
  IC50: 18 µM

## CO[C@@H]1[C@@H](O)[C@@H](OC)[C@H](O[C@@H]2[C@@H](OC)[C@H](C)O[C@@H](O[C@@H]3C[C@H]4O[C@@](O)(C3)[C@H](C)C(=O)O[C@@H](/C=C/C=C/Br)C/C(C)=C/C(=O)C4(C)C)[C@@H]2OC)O[C@H]1C
[4]
  IC50: 0.17 µg/mL (≈ 0.211 µM)

## CCCCCCCCCCCCCCCCOC[C@H](CO[C@@H]1O[C@@H](CO)[C@H](O)[C@@H](O)[C@@H]1O)OC
[5]
  CC50: 7.5 µM
[6]
  CC50: 6.5 µM
[7]
  CC50: 11 µM
[8]
  CC50: 12.5 µM
[9]
  CC50: 12.5 µM

## CCCCC[C@H]1CCCCCCCCCC(=O)O[C@@H]2[C@@H](O[C@@H]3O[C@H](C)[C@@H](OC(=O)[C@@H](C)CC)[C@H](O)[C@H]3O)[C@H](C)O[C@@H](O[C@H]3[C@H](O[C@H]4[C@H](O1)O[C@H](C)[C@@H](O)[C@@H]4O)O[C@H](COC(=O)[C@@H](C)CC)[C@@H](O)[C@@H]3O)[C@@H]2OC(=O)[C@H](C)[C@@H](C)O [ORIZABIN XVIII]
[1]
  EC50: 1 µg/mL (≈ 0.89 µM)

## C/C=C(\C)C(=O)O[C@H]1[C@H](O)[C@@H](O)[C@H](O[C@@H]2[C@H]3OC(=O)CCCCCCCCC[C@H](CCCCC)O[C@@H]4O[C@H](C)[C@@H](O)[C@H](O)[C@H]4O[C@@H]4O[C@H](COC(=O)[C@@H](C)[C@H](C)O)[C@@H](O)[C@H](O)[C@H]4O[C@H](O[C@H]2C)[C@@H]3OC(=O)[C@@H](C)CC)O[C@@H]1C [ORIZABIN XVII]
[1]
  EC50: 1 µg/mL (≈ 0.892 µM)

## CCCCCCCCCCCCCCCCCCOCC(CO[C@@H]1O[C@H](CO)[C@H](O)[C@H](O)[C@H]1O)OCC (some centres undefined)
[3]
  IC50: 2.5 µM

## C/C=C(\C)C(=O)O[C@H]1[C@H](O)[C@@H](O)[C@H](O[C@@H]2[C@H]3OC(=O)CCCCCCCCC[C@H](CCCCC)O[C@@H]4O[C@H](C)[C@@H](O)[C@H](O)[C@H]4O[C@@H]4O[C@H](COC(=O)[C@H](C)[C@@H](C)O)[C@@H](O)[C@H](O)[C@H]4O[C@H](O[C@H]2C)[C@@H]3OC(=O)C(C)C)O[C@@H]1C [ORIZABIN XII]
[1]
  EC50: 1 µg/mL (≈ 0.903 µM)

## CO[C@@H]1[C@H](O[C@@H]2CO[C@@H](O[C@@H]3[C@@H](O)[C@H](O)CO[C@H]3N3C(=O)/C(=C(O)/C=C/C=C/C=C/C=C/C=C(Cl)/C=C/C=C(\Cl)[C@H]4O[C@H](C)C[C@@H]4Cl)C(=O)[C@@H]3CC(N)=O)[C@@H](O)[C@@H]2O)O[C@H](C)[C@H]1O
[2]
  IC50: 0.2 µg/mL (≈ 0.211 µM)

## C/C=C(\C)C(=O)O[C@H]1[C@H](O)[C@@H](O)[C@H](O[C@@H]2[C@H]3OC(=O)CCCCCCCCC[C@H](CCCCC)O[C@@H]4O[C@H](C)[C@@H](O)[C@H](O)[C@H]4O[C@@H]4O[C@H](COC(=O)[C@@H](C)CC)[C@@H](O)[C@H](O)[C@H]4O[C@H](O[C@H]2C)[C@@H]3OC(=O)[C@@H](C)[C@H](C)O)O[C@@H]1C [ORIZABIN XV]
[1]
  EC50: 1 µg/mL (≈ 0.892 µM)

## CCCCCCCCCCCCCCCCCCOCC(CO[C@H]1O[C@H](CO)[C@@H](O)[C@H](O)[C@@H]1O)OCC (some centres undefined)
[3]
  IC50: 3 µM

## C/C=C(\C)C(=O)O[C@H]1[C@H](O)[C@@H](O)[C@H](O[C@@H]2[C@H]3OC(=O)CCCCCCCCC[C@H](CCCCC)O[C@@H]4O[C@H](C)[C@@H](O)[C@H](O)[C@H]4O[C@@H]4O[C@H](COC(=O)[C@H](C)[C@@H](C)O)[C@@H](O)[C@H](O)[C@H]4O[C@H](O[C@H]2C)[C@@H]3OC(=O)[C@@H](C)CC)O[C@@H]1C [ORIZABIN XVI]
[1]
  EC50: 1 µg/mL (≈ 0.892 µM)

## CCCCC[C@H]1CCCCCCCCCC(=O)O[C@@H]2[C@@H](O[C@@H]3O[C@H](C)[C@@H](OC(=O)[C@@H](C)CC)[C@H](O)[C@H]3O)[C@H](C)O[C@@H](O[C@H]3[C@H](O[C@H]4[C@H](O1)O[C@H](C)[C@@H](O)[C@@H]4O)O[C@H](COC(=O)[C@@H](C)CC)[C@@H](O)[C@@H]3O)[C@@H]2OC(=O)[C@@H](C)[C@H](C)O [ORIZABIN XIX]
[1]
  EC50: 1 µg/mL (≈ 0.89 µM)

## CCCCCCCCCCCCCCCCCCOCC(COC(=O)NCCCO[C@@H]1O[C@H](CO)[C@H](O)[C@H](O)[C@H]1O)OCC (some centres undefined)
[3]
  IC50: 17 µM

## CO[C@@H]1[C@H](O[C@@H]2CO[C@@H](O[C@@H]3[C@@H](O)[C@H](O)CO[C@H]3N3C(=O)/C(=C(O)/C=C/C=C/C=C/C=C/C=C(Cl)/C=C/C=C/[C@@H]4O[C@H](C)C[C@@H]4Cl)C(=O)[C@@H]3CC(N)=O)[C@@H](O)[C@@H]2O)O[C@H](C)[C@H]1O
[2]
  IC50: 0.05 µg/mL (≈ 0.0547 µM)

## CO[C@@H]1[C@H](O[C@@H]2CO[C@@H](O[C@@H]3[C@@H](O)[C@H](O)CO[C@H]3N3C(=O)/C(=C(O)/C=C/C=C/C=C/C=C/C=C(Cl)/C=C/C=C/C=C/[C@@H]4O[C@H](C)C[C@@H]4Cl)C(=O)[C@@H]3CC(N)=O)[C@@H](O)[C@@H]2O)O[C@H](C)[C@H]1O
[2]
  IC50: 0.2 µg/mL (≈ 0.213 µM)

## CCCCC[C@H]1CCCCCCCCCC(=O)O[C@@H]2[C@@H](O[C@@H]3O[C@H](C)[C@@H](OC(=O)[C@@H](C)CC)[C@H](O)[C@H]3O)[C@H](C)O[C@@H](O[C@H]3[C@H](O[C@H]4[C@H](O1)O[C@H](C)[C@@H](O)[C@@H]4O)O[C@H](COC(=O)[C@@H](C)[C@H](C)O)[C@@H](O)[C@@H]3O)[C@@H]2OC(=O)[C@@H](C)CC [ORIZABIN XXI]
[1]
  EC50: 1 µg/mL (≈ 0.89 µM)

## C/C=C(\C)C(=O)O[C@H]1[C@H](O)[C@@H](O)[C@H](O[C@@H]2[C@H]3OC(=O)CCCCCCCCC[C@H](CCCCC)O[C@@H]4O[C@H](C)[C@@H](O)[C@H](O)[C@H]4O[C@@H]4O[C@H](COC(=O)C(C)C)[C@@H](O)[C@H](O)[C@H]4O[C@H](O[C@H]2C)[C@@H]3OC(=O)[C@H](C)[C@@H](C)O)O[C@@H]1C [ORIZABIN X]
[1]
  EC50: 1 µg/mL (≈ 0.903 µM)

## CCCCCCCCCCCCCCCCOC[C@H](CN)O[C@@H]1O[C@@H](C)[C@H](O)[C@@H](O)[C@H]1O
[5]
  CC50: 8.5 µM
[6]
  CC50: 5.5 µM
[8]
  CC50: 8.2 µM
[9]
  CC50: 11 µM

## CCCCCCCCCCCCCCCCCCOCC(COC(=O)NCCCO[C@@H]1O[C@H](CO)[C@@H](O[C@@H]2O[C@H](CO)[C@H](O)[C@H](O)[C@H]2O)[C@H](O)[C@H]1O)OCC (some centres undefined)
[3]
  IC50: 7 µM

## CCCCCCCCCCCCCCCCCCOCC(COC(=O)NCCCO[C@H]1O[C@H](CO)[C@@H](O)[C@H](O)[C@@H]1O)OCC (some centres undefined)
[3]
  IC50: 18 µM
